Measured values: patent US5925372A, “Mixed solvent mutually enhanced transdermal therapeutic system” (Novartis Corporation, priority 1991, dated 1999)
Like-named read-outs stand apart in the source and are kept apart here.

Tests used:
[1] = Flux of progesterone across membrane and adhesive on human epidermis (FIG. 3); format: in vitro ADME; details: 1 mil polyurethane membrane and silicone adhesive
Description: FIG. 3 is a graph of the flux of progesterone across a membrane and adhesive on human epidermis versus volume fraction of ethanol in the aqueous ethanol reservoir.
(§1) This Example is based on FIGS. 1-3.

[2] = Steady-state flux of progesterone across the epidermis versus volume fraction of ethanol in donor (FIG. 1); format: in vitro ADME
Description: as §1

[3] = Method: FIG. 2 is a graph of the steady-state flux of ethanol across human epidermis versus the volume fraction of ethanol in the donor solution.
This Example is based on FIGS. 1-3. […] The reservoir contains 1.7 ml of ethanol, 0.3 ml water, 200 mg of progesterone as the drug, and 2% Klucel as a gelling agent. […] A volume fraction of 0.85 is chosen to allow for the back flux of water and depletion of ethanol during the use of the system.

[4] = Fluxes through ethylene vinyl acetate membranes (Table 1); details: for ^3 H2 O flux through ethylene vinyl acetate membrane: ethanol:water (7:3) reservoir; for Nitroglycerin flux through ethylene vinyl acetate membrane: ethanol:water (7:3) reservoir saturated with nitroglycerin on lactose
Method: (§2) For convenience purposes, this is measured by placing a portion of membrane or membrane/adhesive laminate in a diffusion cell and filling one side with a 70%, aqueous ethanol. After a period of time the amounts of water and alkanol that have crossed the membrane are determined. Typically, when measuring ethanol flux, the receiver side is water. When measuring water flux, either a) the donor side is ^3 H2 O and the receiver side is water or b) the donor side is water and the receiver side is air.

[5] = commercial estradiol system, cited from earlier work
[6] = cited from earlier work
[7] = cited from earlier work; remark: listed apart in the source
[8] = format: in vitro ADME, human; details: 0.7 volume fraction of ethanol; active agent at saturation
Description: FIG. 4 is a graph of the flux of (±) trans-1,3,4,4a,5,10b-hexahydro-4-propyl-2H-[1]benzopyrano[3,4-b]pyridin-9-ol monohydrochloride, an ionizable drug which is a dopamine autoreceptor agonist, across human epidermis from ethanol: water (7:3) versus pH of that aqueous ethanol solution. In aqueous solutions, the drug is […] charged below pH 6.5.
This Example is based on FIG. 4 in which the dopamine autoreceptor agonist, (±)trans-1,3,4,4a,5,10b-hexahydro-4-propyl-2H-[1]benzopyrano[3,4-b]pyridin-9-ol, an ionizable drug, permeates skin. For this drug the optimal pH of an ethanol:water donor which is 0.7 volume fraction of ethanol is in the range of 4. A microporous membrane such as a microporous polypropylene and a silicone adhesive may be used. The active agent is present at saturation.

[9] = cited from earlier work; remark: listed apart in the source
[10] = cited from earlier work; remark: listed apart in the source
[11] = Water and ethanol flux through the combined membrane adhesive laminate; details: 32.8% vinyl acetate membrane plus 2 mil silicone face adhesive
Method: as §2
(§3) In current-marketed transdermal devices, the adhesive is typically between 1.5 and 3 mils thick and is on the face of the device.

[12] = Fluxes of nitroglycerin through skin and ethylene vinyl acetate membranes (Table 2); format: in vitro ADME
[13] = Flux of nitroglycerin and ethanol through epidermis, with and without membrane (FIGS. 5 and 6); details: FIG. 6
Description: FIG. 5 is a graph of the flux of nitroglycerin across epidermis versus the volume fraction of ethanol in the aqueous ethanol reservoir.
FIG. 6 is a graph of the flux of nitroglycerin versus the flux of ethanol for two different membrane thicknesses and epidermis as compared to epidermis alone.
These Examples are based on FIGS. 5 and 6. A 0.65 volume fraction of ethanol is used in the reservoir. The systems have a 10 cm^2 surface area, and use a polyester impermeable backing, a polyurethane membrane, and a silicone adhesive. […] Above a volume fraction of 0.8 ethanol, a safety hazard or transportation law infraction may be incurred with nitroglycerin unless the nitroglycerin is kept below 10%.

[14] = Fluxes of nitroglycerin and ethanol through 32.8% vinyl acetate membrane plus skin with and without silicone face adhesive (Table 3)
Description: as §3

[15] = Charge state in aqueous solutions; format: physicochemical

## CC(=O)[C@H]1CC[C@H]2[C@@H]3CCC4=CC(=O)CC[C@]4(C)[C@H]3CC[C@]12C [progesterone]
[1]
  Volume fraction of ethanol at optimum of skin permeation with membrane and adhesive: ~0.7 volume fraction of ethanol
[2]; compared to both neat water and neat ethanol
  Progesterone flux across epidermis from optimized aqueous ethanol reservoir: large increase in the flux
[2]; not including the drug or gelling agent
  Volume fraction of ethanol at which progesterone flux through skin is optimized: 0.4-0.85 volume fraction of ethanol

## CCO [Ethanol, ethanol]
[3]
  Volume fraction of ethanol at which ethanol flux through skin is optimized: 0.4-0.85 volume fraction of ethanol
[4]
  Dependence of permeation on vinyl acetate content: increase with vinyl acetate content
[5]; neat ethanol gel reservoir
  Ethanol permeability of rate-limiting membrane: ~400 mcg/cm^2 /hr

## O=C(O)c1ccccc1O [salicylic acid]
[6]
  Flux of salicylic acid through human skin, neat versus aqueous ethanol: neat ethanol increases skin permeation better than aqueous ethanol

## O [water]
[5]
  Water permeability of rate-limiting membrane: relatively impermeable to water

## C#C[C@]1(O)CC[C@H]2[C@@H]3CCC4=CC(=O)CC[C@@H]4[C@H]3CC[C@@]21CC [levonorgestrel]
[7]
  Flux of levonorgestrel through rat skin, neat versus aqueous ethanol: neat ethanol increases skin permeation better than aqueous ethanol

## CCCN1CCC[C@@H]2c3cc(O)ccc3OC[C@H]21 (racemic) [(±)trans-1,3,4,4a,5,10b-hexahydro-4-propyl-2H-[1]benzopyrano[3,4-b]pyridin-9-ol]
[8]
  Optimal pH of ethanol:water donor for skin permeation: ~4

## C[C@]12CC[C@@H]3c4ccc(O)cc4CC[C@H]3[C@@H]1CC[C@@H]2O [estradiol]
[9]
  Flux of estradiol through hairless mouse skin, neat versus aqueous ethanol: neat ethanol increases skin permeation better than aqueous ethanol
[10]
  Skin permeation of estradiol from neat ethanol versus aqueous ethanol donor solutions: skin permeation from neat ethanol is as good or better than from aqueous ethanol donor solutions

## [3H]O[3H] [^3 H2 O, tritiated water]
[11]
  Tritiated water flux through combined membrane adhesive laminate: smaller than the range disclosed by this invention
[4]; until reservoir composition of ethanol and water is delivered to skin surface
  Dependence of permeation on vinyl acetate content: increase with vinyl acetate content
[4]; vinyl acetate content 9%
  ^3 H2 O flux through ethylene vinyl acetate membrane: 0.5 mg/h
[4]; vinyl acetate content 18%
  ^3 H2 O flux through ethylene vinyl acetate membrane: 4 ± 0.3 mg/h
[4]; vinyl acetate content 28%
  ^3 H2 O flux through ethylene vinyl acetate membrane: 17 ± 3 mg/h
[4]; vinyl acetate content 40%
  ^3 H2 O flux through ethylene vinyl acetate membrane: 63 ± 9 mg/h

## O=[N+]([O-])OCC(CO[N+](=O)[O-])O[N+](=O)[O-] [Nitroglycerin, nitroglycerin]
[12]; 1 mil ethylene/vinyl acetate membranes
  Rate control of nitroglycerin permeation: the skin controls the rate of nitroglycerin permeation
[12]; membranes of higher vinyl acetate content
  Improvement of nitroglycerin flux through skin over the best of previously disclosed systems: ≤ 2 factor
[12]; vinyl acetate content 9%
  Flux of nitroglycerin through skin and ethylene vinyl acetate membrane: 30 mcg/cm^2 /hr
[12]; vinyl acetate content 18%
  Flux of nitroglycerin through skin and ethylene vinyl acetate membrane: 60 mcg/cm^2 /hr
[12]; vinyl acetate content 28%
  Flux of nitroglycerin through skin and ethylene vinyl acetate membrane: 66 mcg/cm^2 /hr
[12]; vinyl acetate content 40%
  Flux of nitroglycerin through skin and ethylene vinyl acetate membrane: 120 mcg/cm^2 /hr
[4]; vinyl acetate content 9%
  Nitroglycerin flux through ethylene vinyl acetate membrane: 2.4 ± 0.3 mg/h
[4]; vinyl acetate content 18%
  Nitroglycerin flux through ethylene vinyl acetate membrane: 5 ± 0.7 mg/h
[4]; vinyl acetate content 28%
  Nitroglycerin flux through ethylene vinyl acetate membrane: 10 ± 0.5 mg/h
[4]; vinyl acetate content 40%
  Nitroglycerin flux through ethylene vinyl acetate membrane: 21 ± 0.3 mg/h
[13]
  Relation of nitroglycerin flux versus ethanol flux through skin and membrane adhesive laminates: The nitroglycerin follows the ethanol through skin
[14]; 32.8% vinyl acetate membrane, peripheral versus 2 mil silicone face adhesive
  Improvement of nitroglycerin flux by optimization of adhesive and membrane layers: more than a factor of two
[14]; Membrane alone and skin, 32.8% vinyl acetate membrane, ethanol:water (85:15) reservoir
  Nitroglycerin flux: 82 ± 26 mcg/cm^2 /hr
[14]; Membrane and adhesive (2 mil silicone face adhesive) and skin, 32.8% vinyl acetate, ethanol:water (85:15) reservoir
  Nitroglycerin flux: 37 ± 10 mcg/cm^2 /hr
[14]; Skin alone from ethanol:water (70:30)
  Nitroglycerin flux: 85 ± 15 mcg/cm^2 /hr
[14]; Skin alone without ethanol in donor
  Nitroglycerin flux: 15 ± 7 mcg/cm^2 /hr

## CCCN1CCC[C@@H]2c3cc(O)ccc3OC[C@H]21.Cl (racemic) [(±) trans-1,3,4,4a,5,10b-hexahydro-4-propyl-2H-[1]benzopyrano[3,4-b]pyridin-9-ol monohydrochloride]
[15]
  pH below which the drug is negatively charged in aqueous solutions: < 6.5
